Measurements: US20100160454A1, “ANTIMICROBIAL AGENTS, COMPOSITIONS AND PRODUCTS CONTAINING THE SAME, AND METHODS OF USING THE COMPOSITIONS AND PRODUCTS” (Eastman Chemical Company, priority 2008, published 2010)

How the values were obtained:
Experiment in all cases: Microbiological challenge testing in BPW broth, graded subculture counts
Format in all cases: cell-based
[1] = system: Bacillus subtilis Wild type
Outline: (§1)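 Challenge substrates of BPW plus 1% dextrose containing the test material (w/v) or broth alone were inoculated to 10^5–10^6 CFU/mL. Bacteria had been precultured in dextrose TSB at 35 °C for at least 96 h. CFU/mL came from plate count × dilution factor on PCA after ≥48 h at 35 °C.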

[2] = system: Staphylococcus epidermidis ATCC 12228
Outline: as §1

[3] = system: Proteus vulgaris Wild type
Outline: as §1

[4] = system: Pseudomonas aeruginosa Wild type; details: P. aeruginosa
Outline: as §1

Aeromonas sp. Wild type = system: Aeromonas sp. Wild type
Outline: as §1

[5] = system: Staphylococcus aureus ATCC 25923; details: S. aureus
Outline: as §1

[6] = system: Burkholderia cepacia Wild type; details: B. cepacia
Outline: as §1

Question: Which results are given for `CCCCOCCO` [EB, 2-butoxyethanol]?
Answer: B. subtillis growth grade, 3 day ([1]; 2.5% weight/volume): 4 (1000 to 10,000 colonies countable (thus 10,000 CFU/mL to 100,000 CFU/mL)); B. subtillis growth grade, 14 day ([1]; 2.5% weight/volume): 4 (1000 to 10,000 colonies countable (thus 10,000 CFU/mL to 100,000 CFU/mL)); B. subtillis growth grade, 30 day ([1]; 2.5% weight/volume): 4 (1000 to 10,000 colonies countable (thus 10,000 CFU/mL to 100,000 CFU/mL)); B. subtillis growth grade, 3 day ([1]; 5.0% weight/volume): 1 (0 to 51 colonies counted (thus 10 to 510 CFU/mL based on 0.1-mL sample)); B. subtillis growth grade, 14 day ([1]; 5.0% weight/volume): 0; B. subtillis growth grade, 30 day ([1]; 5.0% weight/volume): 0; S. epidermidis growth grade, 3 day ([2]; 2.5% weight/volume): 4 (1000 to 10,000 colonies countable (thus 10,000 CFU/mL to 100,000 CFU/mL)); S. epidermidis growth grade, 13 day ([2]; 2.5% weight/volume): 4 (1000 to 10,000 colonies countable (thus 10,000 CFU/mL to 100,000 CFU/mL)); S. epidermidis growth grade, 30 day ([2]; 2.5% weight/volume): 4 (1000 to 10,000 colonies countable (thus 10,000 CFU/mL to 100,000 CFU/mL)); S. epidermidis growth grade, 3 day ([2]; 5.0% weight/volume): 0; S. epidermidis growth grade, 13 day ([2]; 5.0% weight/volume): 0; S. epidermidis growth grade, 30 day ([2]; 5.0% weight/volume): 0; P. vulgaris growth grade, 3 day ([3]; 2.5% weight/volume): 4 (1000 to 10,000 colonies countable (thus 10,000 CFU/mL to 100,000 CFU/mL)); P. vulgaris growth grade, 13 day ([3]; 2.5% weight/volume): 4 (1000 to 10,000 colonies countable (thus 10,000 CFU/mL to 100,000 CFU/mL)); P. vulgaris growth grade, 30 day ([3]; 2.5% weight/volume): 4 (1000 to 10,000 colonies countable (thus 10,000 CFU/mL to 100,000 CFU/mL)); P. vulgaris growth grade, 3 day ([3]; 5.0% weight/volume): 0; P. vulgaris growth grade, 13 day ([3]; 5.0% weight/volume): 0; P. vulgaris growth grade, 30 day ([3]; 5.0% weight/volume): 0; Grade ([4]; 2.5% (wt/vol), 3 day): 4 (1000 to 10,000 colonies countable (thus 10,000 CFU/mL to 100,000 CFU/mL)); Grade ([4]; 2.5% (wt/vol), 13 day): 4 (1000 to 10,000 colonies countable (thus 10,000 CFU/mL to 100,000 CFU/mL)); Grade ([4]; 2.5% (wt/vol), 30 day): 4 (1000 to 10,000 colonies countable (thus 10,000 CFU/mL to 100,000 CFU/mL)); Grade ([4]; 5.0% (wt/vol), 3 day): 0; Grade ([4]; 5.0% (wt/vol), 13 day): 0; Grade ([4]; 5.0% (wt/vol), 30 day): 0; Aeromonas sp growth grade, 3 day (Aeromonas sp. Wild type; 2.5% weight/volume): 4 (1000 to 10,000 colonies countable (thus 10,000 CFU/mL to 100,000 CFU/mL)); Aeromonas sp growth grade, 14 day (Aeromonas sp. Wild type; 2.5% weight/volume): 4 (1000 to 10,000 colonies countable (thus 10,000 CFU/mL to 100,000 CFU/mL)); Aeromonas sp growth grade, 30 day (Aeromonas sp. Wild type; 2.5% weight/volume): 4 (1000 to 10,000 colonies countable (thus 10,000 CFU/mL to 100,000 CFU/mL)); Aeromonas sp growth grade, 3 day (Aeromonas sp. Wild type; 5.0% weight/volume): 1 (0 to 51 colonies counted (thus 10 to 510 CFU/mL based on 0.1-mL sample)); Aeromonas sp growth grade, 14 day (Aeromonas sp. Wild type; 5.0% weight/volume): 0; Aeromonas sp growth grade, 30 day (Aeromonas sp. Wild type; 5.0% weight/volume): 0; Grade ([5]; 2.5% (wt/vol), 3 day): 4 (1000 to 10,000 colonies countable (thus 10,000 CFU/mL to 100,000 CFU/mL)); Grade ([5]; 2.5% (wt/vol), 14 day): 4 (1000 to 10,000 colonies countable (thus 10,000 CFU/mL to 100,000 CFU/mL)); Grade ([5]; 2.5% (wt/vol), 30 day): 4 (1000 to 10,000 colonies countable (thus 10,000 CFU/mL to 100,000 CFU/mL)); Grade ([5]; 5.0% (wt/vol), 3 day): 2 (52 to 100 colonies counted (thus 520 to 1000 CFU/mL)); Grade ([5]; 5.0% (wt/vol), 14 day): 0; Grade ([5]; 5.0% (wt/vol), 30 day): 0; Grade ([6]; 2.5% (wt/vol), 3 day): 4 (1000 to 10,000 colonies countable (thus 10,000 CFU/mL to 100,000 CFU/mL)); Grade ([6]; 2.5% (wt/vol), 14 day): 4 (1000 to 10,000 colonies countable (thus 10,000 CFU/mL to 100,000 CFU/mL)); Grade ([6]; 2.5% (wt/vol), 30 day): 4 (1000 to 10,000 colonies countable (thus 10,000 CFU/mL to 100,000 CFU/mL)); Grade ([6]; 5.0% (wt/vol), 3 day): 0; Grade ([6]; 5.0% (wt/vol), 14 day): 0; Grade ([6]; 5.0% (wt/vol), 30 day): 0
